“And” between values parts separate entries of the source, which are not always exact repeats. Equal entries are not always repeated.
Test system: subcutaneous SW1222 xenografts (A33 antigen-expressing human colorectal carcinoma)
Experiment: Pretargeted biodistribution with huA33-TCO and ^64Cu-tetrazine radioligand
Assay type: in vivo, athymic nude mice
Description: Female athymic nude mice bearing subcutaneous SW1222 (right shoulder) xenografts (100-150 mm^3, 18-21 days post-inoculation) were administered 100 μg (0.66 nmol) huA33-TCO (in 200 μL 0.9% sterile saline) via intravenous tail vein injection. […] The specific activity of the radiotracer was adjusted using cold ^natCu-Tz-SarAr such that the molar ratio of Tzinjected:huA^33injected=1:1. Animals (n=4 per group) were euthanized by CO2(g) asphyxiation at 1, 4, 12, and 24 h after injection. After asphyxiation, 13 tissues were removed, rinsed in water, dried in air for 5 min, weighed, and counted in a gamma counter calibrated for ^64Cu. Counts were converted into activity using a calibration curve generated from known standards. Count data were background- and decay-corrected to the time of injection, and the percent injected dose per gram (% ID/g) for each tissue sample was calculated by normalization to the total activity injected. Contents within the stomach, small intestine, and large intestine were not removed for the measurements.
Contents within the stomach, small intestine, and large intestine were not removed for the measurements. […] Zeglis, B. M. et al. “A pretargeted PET imaging strategy based on bioorthogonal Diels-Alder click chemistry.” Journal of Nuclear Medicine. 54, 1389-1396 (2013). ©2013 by the Society of Nuclear Medicine and Molecular Imaging, Inc.
Zeglis, B. M. et al. “A pretargeted PET imaging strategy based on bioorthogonal Diels-Alder click chemistry.” Journal of Nuclear Medicine. 54, 1389-1396 (2013). ©2013 by the Society of Nuclear Medicine and Molecular Imaging, Inc.
(§1) Female athymic nude mice bearing subcutaneous SW1222 (right shoulder) xenografts (100-150 mm^3, 18-21 days post-inoculation) were administered 100 μg (0.66 nmol) huA33-TCO (in 200 μL 0.9% sterile saline) via intravenous tail vein injection. After an accumulation interval of 48 h, the same mice were then administered ^64Cu-Tz-SarAr (300-350 μCi in 200 μL 0.9% sterile saline) via intravenous tail vein injection (t=0). The specific activity of the radiotracer was adjusted using cold ^natCu-Tz-SarAr such that the molar ratio of Tzinjected:huA^33injected=1:1. Animals (n=4 per group) were euthanized by CO2(g) asphyxiation at 1, 4, 12, and 24 h after injection. After asphyxiation, tissues were removed, rinsed in water, dried in air for 5 min, weighed, and counted in a gamma counter calibrated for ^64Cu. Counts were converted into activity using a calibration curve generated from known standards. Count data were background- and decay-corrected to the time of injection, and the percent injected dose per gram (% ID/g) for each tissue sample was calculated by normalization to the total activity injected. Contents within the stomach, small intestine, and large intestine were not removed for the measurements.
as §1, with “120” for “48”, “Contents within the stomach, small intestine, and large intestine were not removed for the measurements.” left out

[1] = 24 h accumulation interval, 1 h p.i.
[2] = 24 h accumulation interval, 4 h p.i.
[3] = 24 h accumulation interval, 12 h p.i.
[4] = 24 h accumulation interval, 24 h p.i.
[5] = 48 h accumulation interval, 1 h p.i.
[6] = 48 h accumulation interval, 4 h p.i.

## NC12CNCCNCC(NCc3ccc(CNC(=O)CCCC(=O)NCc4ccc(-c5nncnn5)cc4)cc3)(CNCCNC1)CNCCNC2.[64Cu+2] [^64Cu-Tz-SarAr]
[1]
  Blood activity concentration: 4.2±0.8 % ID/g and 4.20 ± 0.80^a % ID/g
  Bone activity concentration: 0.67 ± 0.14 % ID/g
  Heart activity concentration: 1.81 ± 0.46 % ID/g
  Kidney activity concentration: 3.1±0.3 % ID/g and 3.08 ± 0.28 % ID/g
  Large Intestine activity concentration: 0.21±0.09 % ID/g
  Liver activity concentration: 1.60 ± 0.12 % ID/g
  Lung activity concentration: 1.65 ± 0.51 % ID/g
  Muscle activity concentration: 0.38 ± 0.06 % ID/g
  Small Intestine activity concentration: 0.88 ± 0.09 % ID/g
  Spleen activity concentration: 0.98 ± 0.25 % ID/g
  Stomach activity concentration: 0.73 ± 0.19 % ID/g
  Tumor activity concentration: 5.63±0.67 % ID/g
  Tumor/Blood activity concentration ratio: 1.34 ± 0.3
  Tumor/Bone activity concentration ratio: 8.43 ± 2.07
  Tumor/Heart activity concentration ratio: 3.11 ± 0.87
  Tumor/Kidney activity concentration ratio: 1.83 ± 0.27
  Tumor/Large Intestine activity concentration ratio: 26.88 ± 12.11
  Tumor/Liver activity concentration ratio: 3.52 ± 0.49
  Tumor/Lung activity concentration ratio: 3.40 ± 1.12
  Tumor/Muscle activity concentration ratio: 14.9±2.9 and 14.92 ± 2.85
  Tumor/Small Intestine activity concentration ratio: 6.42 ± 1.01
  Tumor/Spleen activity concentration ratio: 5.75 ± 1.61
  Tumor/Stomach activity concentration ratio: 7.75 ± 2.24
[2]
  Blood activity concentration: 4.0±0.37 % ID/g
  Bone activity concentration: 0.34 ± 0.18 % ID/g
  Heart activity concentration: 1.45 ± 0.03 % ID/g
  Kidney activity concentration: 2.77 ± 0.57 % ID/g
  Large Intestine activity concentration: 0.48 ± 0.09 % ID/g
  Liver activity concentration: 1.45 ± 0.21 % ID/g
  Lung activity concentration: 1.55 ± 0.45 % ID/g
  Muscle activity concentration: 0.37 ± 0.07 % ID/g
  Small Intestine activity concentration: 0.62 ± 0.06 % ID/g
  Spleen activity concentration: 0.81 ± 0.20 % ID/g
  Stomach activity concentration: 0.56 ± 0.20 % ID/g
  Tumor activity concentration: 5.56±0.91 % ID/g and 5.6±0.9 % ID/g
  Tumor/Blood activity concentration ratio: 1.39 ± 0.26
  Tumor/Bone activity concentration ratio: 16.15 ± 8.89
  Tumor/Heart activity concentration ratio: 3.84 ± 0.63
  Tumor/Kidney activity concentration ratio: 2.00 ± 0.53
  Tumor/Large Intestine activity concentration ratio: 11.65 ± 2.99
  Tumor/Liver activity concentration ratio: 3.83 ± 0.83
  Tumor/Lung activity concentration ratio: 3.59 ± 1.20
  Tumor/Muscle activity concentration ratio: 14.84 ± 3.69
  Tumor/Small Intestine activity concentration ratio: 8.96 ± 1.71
  Tumor/Spleen activity concentration ratio: 6.88 ± 2.01
  Tumor/Stomach activity concentration ratio: 9.91 ± 3.85
[3]
  Blood activity concentration: 2.19 ± 0.39 % ID/g
  Bone activity concentration: 0.23 ± 0.05 % ID/g
  Heart activity concentration: 0.84 ± 0.1 % ID/g
  Kidney activity concentration: 1.87 ± 0.42 % ID/g
  Large Intestine activity concentration: 0.20 ± 0.04 % ID/g
  Liver activity concentration: 1.33 ± 0.53 % ID/g
  Lung activity concentration: 1.24 ± 0.22 % ID/g
  Muscle activity concentration: 0.15 ± 0.01 % ID/g
  Small Intestine activity concentration: 0.35 ± 0.08 % ID/g
  Spleen activity concentration: 0.65 ± 0.17 % ID/g
  Stomach activity concentration: 0.21 ± 0.1 % ID/g
  Tumor activity concentration: 6.74±1.26 % ID/g
  Tumor/Bone activity concentration ratio: 29.8 ± 8.38
  Tumor/Heart activity concentration ratio: 8.01 ± 1.77
  Tumor/Kidney activity concentration ratio: 3.61 ± 1.05
  Tumor/Large Intestine activity concentration ratio: 33.67±8.82
  Tumor/Liver activity concentration ratio: 5.06 ± 2.23
  Tumor/Lung activity concentration ratio: 5.43 ± 1.41
  Tumor/Small Intestine activity concentration ratio: 19.37 ± 5.95
  Tumor/Spleen activity concentration ratio: 10.34 ± 3.27
  Tumor/Stomach activity concentration ratio: 31.76 ± 16.62
[4]
  Blood activity concentration: 2.61 ± 0.20 % ID/g
  Bone activity concentration: 0.29 ± 0.05 % ID/g
  Heart activity concentration: 0.81 ± 0.04 % ID/g
  Kidney activity concentration: 1.9±0.4 % ID/g and 2.00 ± 0.24 % ID/g
  Large Intestine activity concentration: 0.26 ± 0.06 % ID/g
  Liver activity concentration: 1.51 ± 0.2 % ID/g
  Lung activity concentration: 0.99 ± 0.24 % ID/g
  Muscle activity concentration: 0.20 ± 0.07 % ID/g
  Small Intestine activity concentration: 0.45 ± 0.07 % ID/g
  Spleen activity concentration: 0.64 ± 0.04 % ID/g
  Stomach activity concentration: 0.28 ± 0.07 % ID/g
  Tumor activity concentration: 7.38 ± 2.02 % ID/g
  Tumor/Blood activity concentration ratio: 2.83±0.81
  Tumor/Bone activity concentration ratio: 25.46 ± 8.22
  Tumor/Heart activity concentration ratio: 9.10 ± 2.54
  Tumor/Kidney activity concentration ratio: 3.68 ± 1.1
  Tumor/Large Intestine activity concentration ratio: 28.86 ± 10.28
  Tumor/Liver activity concentration ratio: 4.87 ± 1.48
  Tumor/Lung activity concentration ratio: 7.44 ± 2.74
  Tumor/Muscle activity concentration ratio: 37.37±16.1 and 37.37 ± 16.06
  Tumor/Small Intestine activity concentration ratio: 16.33 ± 5.12
  Tumor/Spleen activity concentration ratio: 11.45 ± 3.20
  Tumor/Stomach activity concentration ratio: 26.44 ± 9.89
24 h accumulation interval, later time points, other than blood and kidneys
  activity concentration in all other non-target tissues: less than 1.5 % ID/g
[5]
  Blood activity concentration: 2.15 ± 0.5 % ID/g
  Bone activity concentration: 0.23 ± 0.05 % ID/g
  Heart activity concentration: 1.05 ± 0.24 % ID/g
  Kidney activity concentration: 1.98 ± 0.26 % ID/g
  Large Intestine activity concentration: 0.29 ± 0.09 % ID/g
  Liver activity concentration: 1.79 ± 0.09 % ID/g
  Lung activity concentration: 1.68 ± 0.09 % ID/g
  Muscle activity concentration: 0.22 ± 0.11 % ID/g
  Small Intestine activity concentration: 0.54 ± 0.15 % ID/g
  Spleen activity concentration: 0.84 ± 0.27 % ID/g
  Stomach activity concentration: 0.39 ± 0.17 % ID/g
  Tumor activity concentration: 4.49 ± 0.44 % ID/g
  Tumor/Blood activity concentration ratio: 2.09 ± 0.52
  Tumor/Bone activity concentration ratio: 19.48 ± 4.94
  Tumor/Heart activity concentration ratio: 4.27 ± 1.05
  Tumor/Kidney activity concentration ratio: 2.27 ± 0.37
  Tumor/Large Intestine activity concentration ratio: 15.48 ± 5.25
  Tumor/Liver activity concentration ratio: 2.51 ± 0.27
  Tumor/Lung activity concentration ratio: 2.67 ± 0.3
  Tumor/Muscle activity concentration ratio: 20.34 ± 10.25
  Tumor/Small Intestine activity concentration ratio: 8.35 ± 2.48
  Tumor/Spleen activity concentration ratio: 5.34 ± 1.79
  Tumor/Stomach activity concentration ratio: 11.57 ± 5.25
[6]
  Blood activity concentration: 1.78±0.28 % ID/g
  Bone activity concentration: 0.32 ± 0.12 % ID/g
  Heart activity concentration: 1.08 ± 0.32 % ID/g
  Kidney activity concentration: 1.83 ± 0.57 % ID/g
  Large Intestine activity concentration: 0.41 ± 0.11 % ID/g
  Liver activity concentration: 1.27 ± 0.19 % ID/g
  Lung activity concentration: 1.53 ± 0.28 % ID/g
  Muscle activity concentration: 0.24 ± 0.08 % ID/g
  Small Intestine activity concentration: 0.33 ± 0.1 % ID/g
  Spleen activity concentration: 0.6 ± 0.09 % ID/g
  Stomach activity concentration: 0.27 ± 0.18 % ID/g
  Tumor activity concentration: 5.2±1.4 % ID/g and 5.15 ± 1.42 % ID/g
  Tumor/Blood activity concentration ratio: 2.9 ± 0.92
  Tumor/Bone activity concentration ratio: 15.86 ± 7.12
  Tumor/Heart activity concentration ratio: 4.75 ± 1.92
  Tumor/Kidney activity concentration ratio: 2.81 ± 1.16
  Tumor/Large Intestine activity concentration ratio: 12.68 ± 4.87
  Tumor/Liver activity concentration ratio: 4.06 ± 1.27
  Tumor/Lung activity concentration ratio: 3.37 ± 1.11
  Tumor/Muscle activity concentration ratio: 21.84 ± 9.2
  Tumor/Small Intestine activity concentration ratio: 15.71 ± 6.48
  Tumor/Spleen activity concentration ratio: 8.55 ± 2.69
  Tumor/Stomach activity concentration ratio: 18.92 ± 13.29
